Laboratory results taken from article PMC11481913, “Rational design of a flavoenzyme for aerobic nicotine catabolism” (mBio, 2024).

Target: T1, Pnao (Pseudomonas putida, UniProt F8G0P1)
T1 construct: dimer
Assay: FAD reduction at […] nm (stopped-flow); FAD-binding ratio by HPLC
Details: FAD co-purified with the enzyme

T1 sequence (F8G0P1 whole entry): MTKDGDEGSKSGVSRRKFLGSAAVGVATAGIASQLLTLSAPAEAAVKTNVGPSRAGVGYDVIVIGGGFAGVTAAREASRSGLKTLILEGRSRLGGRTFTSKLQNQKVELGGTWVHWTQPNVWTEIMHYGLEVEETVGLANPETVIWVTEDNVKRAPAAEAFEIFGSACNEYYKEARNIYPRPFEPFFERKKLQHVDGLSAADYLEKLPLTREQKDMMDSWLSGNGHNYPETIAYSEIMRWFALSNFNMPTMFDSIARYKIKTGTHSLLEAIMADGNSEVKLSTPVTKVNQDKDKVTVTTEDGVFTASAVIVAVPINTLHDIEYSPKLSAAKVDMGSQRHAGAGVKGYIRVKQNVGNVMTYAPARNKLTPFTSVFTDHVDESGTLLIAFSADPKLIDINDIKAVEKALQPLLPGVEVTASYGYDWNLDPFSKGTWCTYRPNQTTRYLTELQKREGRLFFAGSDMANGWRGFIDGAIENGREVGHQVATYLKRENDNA

With `Cc1cc2nc3c(=O)[nH]c(=O)nc-3n(C[C@H](O)[C@H](O)[C@H](O)COP(=O)(O)OP(=O)(O)OC[C@H]3O[C@@H](n4cnc5c(N)ncnc54)[C@H](O)[C@@H]3O)c2cc1C` [FAD, flavin adenine dinucleotide] the “FAD reduction at 450 nm (stopped-flow); FAD-binding ratio by HPLC” value was “the enzyme-bound FAD is transformed from the oxidized to the hydroquinone”.
